Data reported in patent publication US12534493B2, “Bridged nucleoside and nucleotide” (Liid Pharmaceuticals, Inc., priority 2020, dated 2026).

Assays:
Assay type in all cases: binding
[1] = test system: double-stranded hairpin DNA: 5′-d(GGCAGAAGAAAAAGAGACGC)-C18 spacer-d(GCGTCTCTTTTTCTTCTGCC)-3′ (SEQ ID NO: 23); assay: Melting temperature (Tm) measurement, triple strand-forming ability, with double-stranded hairpin DNA; details: triplex with double-stranded hairpin DNA; for ΔTm/mod.: change per modification vs natural oligonucleotide; for Tm: footnote: 10 mM sodium phosphate buffer (pH 7.0), 200 mM NaCl, 5 mM MgCl2
Description: […] The sample solution was cooled to 15° C., and the measurement was started. The temperature was raised to 90° C. at a rate of 0.5° C. per minute, and the absorbance at 260 nm was plotted at intervals of 0.5° C. All Tm values were calculated by the midline method and the average of three independent measurement results was taken.

[2] = test system: single-stranded RNA: 5′-r(ACGAGAACAUCC)-3′ (SEQ ID NO: 11); assay: Melting temperature (Tm) measurement, double strand-forming ability, with single-stranded RNA; details: for Tm (N = A): Table 2, full-match RNA N = A, 10 mM sodium phosphate buffer; for Tm (N = A) / Tm: 200 mM NaCl; for Tm / ΔTm/mod.: duplex with single-stranded RNA SEQ ID NO: 11; for Tm: 10 mM phosphate buffer (pH7.0), 2.5 μM each oligonucleotide; for ΔTm/mod.: change per modification vs natural oligonucleotide
Description: (§1) A sample solution ([…]) with final concentrations of 10 mM phosphate buffer (pH7.0), 200 mM sodium chloride, and 2.5 μM each oligonucleotide was immersed in boiling water and slowly cooled to room temperature. The sample solution was cooled to 20° C., and the measurement was started. The temperature was raised to 90° C. at a rate of 0.5° C. per minute, and the absorbance at 260 nm was plotted at intervals of 0.5° C. All Tm values were calculated by the midline method and the average of three independent measurement results was taken.
(§2) conditions: 10 mM sodium phosphate buffer (pH7.0) containing 200 mM NaCl, […] of each strand

[3] = test system: single-stranded DNA: 5′-d(ACGAGAACATCC)-3′ (SEQ ID NO: 12); assay: Melting temperature (Tm) measurement, double strand-forming ability, with single-stranded DNA; details: duplex with single-stranded DNA SEQ ID NO: 12; for Tm: 10 mM phosphate buffer (pH7.0), 200 mM NaCl, 2.5 μM each oligonucleotide; for ΔTm/mod.: change per modification vs natural oligonucleotide
Description: as §1, §2

[4] = test system: single-stranded RNA:5′-r(ACGAGANCAUCC)-3′, N = G; assay: Tm measurement with single-stranded RNA (base sequence identifying ability), N = G; details: mismatch RNA N = G; for ΔTm (N = G), in parentheses: difference from N = A; for Tm (N = G): 10 mM sodium phosphate buffer, 200 mM NaCl
Description: as §1, §2

[5] = test system: single-stranded RNA:5′-r(ACGAGANCAUCC)-3′, N = C; assay: Tm measurement with single-stranded RNA (base sequence identifying ability), N = C; details: mismatch RNA N = C; for ΔTm (N = C), in parentheses: difference from N = A; for Tm (N = C): 10 mM sodium phosphate buffer, 200 mM NaCl
Description: as §1, §2

[6] = test system: single-stranded RNA:5′-r(ACGAGANCAUCC)-3′, N = U; assay: Tm measurement with single-stranded RNA (base sequence identifying ability), N = U; details: mismatch RNA N = U; for ΔTm (N = U), in parentheses: difference from N = A; for Tm (N = U): 10 mM sodium phosphate buffer, 200 mM NaCl
Description: as §1, §2

| Substance | ΔTm/mod. [1] | Tm [1] | Tm (N = A) [2] | Tm [2] | Tm [3] | ΔTm (N = G), in parentheses [4] | Tm (N = G) [4] | ΔTm (N = C), in parentheses [5] | Tm (N = C) [5] | ΔTm (N = U), in parentheses [6] | Tm (N = U) [6] | ΔTm/mod. [2] | ΔTm/mod. [3] |
| --- | --- | --- | --- | --- | --- | --- | --- | --- | --- | --- | --- | --- | --- |
| 5′ -TCTTCTTZTTCTCT-3′: modified oligonucleotide with one Z modification; C shows 2′-deoxy-5-methylcytidine (DNA TCTTCTTTTTCTCT; Z modified nucleotide; 5-methylcytidines; (2)..(2) 2′-Deoxy-5-methylcytidine; (5)..(5) 2′-Deoxy-5-methylcytidine; misc_difference (8)..(8) ENA; (11)..(11) 2′-Deoxy-5-methylcytidine; (13)..(13) 2′-Deoxy-5-methylcytidine) | +5.0 °C | 36 °C |  |  |  |  |  |  |  |  |  |  |  |
| 5′ -TCTTCTXXXTCTCT-3′: modified oligonucleotide with three consecutive X modifications (DNA TCTTCTTTTTCTCT; three X modified nucleotides; (2)..(2) 2′-Deoxy-5-methylcytidine; (5)..(5) 2′-Deoxy-5-methylcytidine; misc_difference (7)..(7) Me-TaNA; misc_difference (8)..(8) Me-TaNA; misc_difference (9)..(9) Me-TaNA; (11)..(11) 2′-Deoxy-5-methylcytidine; (13)..(13) 2′-Deoxy-5-methylcytidine) | +6.3 °C | 50 °C |  |  |  |  |  |  |  |  |  |  |  |
| 5′ -TCTTCTYYYTCTCT-3′: modified oligonucleotide with three consecutive Y modifications (DNA TCTTCTTTTTCTCT; three Y modified nucleotides; (2)..(2) 2′-Deoxy-5-methylcytidine; (5)..(5) 2′-Deoxy-5-methylcytidine; misc_difference (7)..(7) LNA; misc_difference (8)..(8) LNA; misc_difference (9)..(9) LNA; (11)..(11) 2′-Deoxy-5-methylcytidine; (13)..(13) 2′-Deoxy-5-methylcytidine) | +5.0 °C | 46 °C |  |  |  |  |  |  |  |  |  |  |  |
| 5′ -TCTTCTZZZTCTCT-3′: modified oligonucleotide with three consecutive Z modifications (DNA TCTTCTTTTTCTCT; three Z modified nucleotides; (2)..(2) 2′-Deoxy-5-methylcytidine; (5)..(5) 2′-Deoxy-5-methylcytidine; misc_difference (7)..(7) ENA; misc_difference (8)..(8) ENA; misc_difference (9)..(9) ENA; (11)..(11) 2′-Deoxy-5-methylcytidine; (13)..(13) 2′-Deoxy-5-methylcytidine) | +5.7 °C | 48 °C |  |  |  |  |  |  |  |  |  |  |  |
| 5′ -TCTTCXTXTXCTCT-3′: modified oligonucleotide with three separated X modifications (DNA TCTTCTTTTTCTCT; three X modified nucleotides; (2)..(2) 2′-Deoxy-5-methylcytidine; (5)..(5) 2′-Deoxy-5-methylcytidine; misc_difference (6)..(6) Me-TaNA; misc_difference (8)..(8) Me-TaNA; misc_difference (10)..(10) Me-TaNA; (11)..(11) 2′-Deoxy-5-methylcytidine; (13)..(13) 2′-Deoxy-5-methylcytidine) | +7.3 °C | 53 °C |  |  |  |  |  |  |  |  |  |  |  |
| 5′ -TCTTCYTYTYCTCT-3′: modified oligonucleotide with three separated Y modifications (DNA TCTTCTTTTTCTCT; three Y modified nucleotides; (2)..(2) 2′-Deoxy-5-methylcytidine; (5)..(5) 2′-Deoxy-5-methylcytidine; misc_difference (6)..(6) LNA; misc_difference (8)..(8) LNA; misc_difference (10)..(10) LNA; (11)..(11) 2′-Deoxy-5-methylcytidine; (13)..(13) 2′-Deoxy-5-methylcytidine) | +6.7 °C | 51 °C |  |  |  |  |  |  |  |  |  |  |  |
| 5′ -TCTTCZTZTZCTCT-3′: modified oligonucleotide with three separated Z modifications (DNA TCTTCTTTTTCTCT; three Z modified nucleotides; (2)..(2) 2′-Deoxy-5-methylcytidine; (5)..(5) 2′-Deoxy-5-methylcytidine; misc_difference (6)..(6) ENA; misc_difference (8)..(8) ENA; misc_difference (10)..(10) ENA; (11)..(11) 2′-Deoxy-5-methylcytidine; (13)..(13) 2′-Deoxy-5-methylcytidine) | +6.7 °C | 51 °C |  |  |  |  |  |  |  |  |  |  |  |
| 5′-GGATGTTCTCGT-3′: unmodified (natural) oligonucleotide, SEQ ID NO: 1 (unmodified DNA) |  |  | 52 °C | 52 °C | 51 °C | -4 º C. | 48 °C | -14 º C. | 38 °C | -12 º C. | 40 °C |  |  |
| 5′-GGATGXTCTCGT-3′: modified oligonucleotide with one X modification; X not defined in the visible text (DNA GGATGTTCTCGT; DNA oligonucleotide with modified nucleotide X, X not given here, further chemistry not given here) |  |  | 58 °C | 58 °C | 53 °C | -5 º C. | 53 °C | -15 º C. | 43 °C | -14 º C. | 44 °C | +6.0 °C | +2.0 °C |
| 5′-GGATGYTCTCGT-3′: modified oligonucleotide with one Y modification; Y not defined in the visible text (DNA GGATGTTCTCGT; Y modified nucleotide; misc_difference (6)..(6) LNA) |  |  | 58 °C | 58 °C | 54 °C | -5 º C. | 53 °C | -14 º C. | 44 °C | -13 º C. | 45 °C | +6.0 °C | +3.0 °C |
| 5′-GGATGZTCTCGT-3′: modified oligonucleotide with one Z modification; Z not defined in the visible text (DNA GGATGTTCTCGT; Z modified nucleotide; misc_difference (6)..(6) ENA) |  |  | 58 °C | 58 °C | 52 °C | -4 º C. | 54 °C | -15 º C. | 43 °C | -13 º C. | 45 °C | +6.0 °C | +1.0 °C |
